Experimental findings from US4725597A, “Bis(piperazinyl or homopiperazinyl)alkanes” (Boehringer Ingelheim Ltd., priority 1984, dated 1988) are described below.

Counter-ions that a name gives are not always drawn.

By IC50 is commonly meant the point on the concentration scale where inhibition reaches its midpoint.

Holding throughout (format): cell-based
For assay [1], the system named is rat peritoneal mast cells. The assay can be described thus: Inhibition of histamine release from rat peritoneal mast cells, Procedure B. The settings on record: Mast cell, 1 h, sheep anti-rat IgE or ovalbumin, 37° C., 60 minutes, (d) No response detected at highest dose indicated, read-out: In Vitro Inhibition of Histamine Release IC50, Procedure B. As for the experimental part:
B. Procedure for Determining Inhibition of Histamine Release from Rat Peritoneal Mast Cells 1. Harvest of Peritoneal Mast Cells: After the rats are sacrificed with ether, 20 ml of Minimum Essential Medium (MEM) containing 20 units/ml heparin is injected into the peritoneum. The abdomen is massaged for one minute and the lavage fluid collected. The peritoneal cells are centrifuged at 1800 rpm for 8 minutes in cold. After two washes with Tris A buffer, the cells are resuspended in Tris ACM buffer at 2-4×10^6 cells/ml. 2. Reaction Mixture: The reaction is carried out in 12×75 mm plastic tubes at a total volume of 1.25 ml. The reaction mixture includes 0.5 ml (10-1000 μg) sheep anti-rat IgE or ovalbumin, 0.2 ml of the test compound in water at concentrations ranging from 10-1000 μM, […] phosphatidylserine solution (20-60 μg to each tube), and 0.5 ml of cell suspension. The reaction mixture is incubated in a 37° C. shaking water bath for 60 minutes. Upon completion of the reaction, the tubes are centrifuged and the supernatants collected. The protein is removed from the supernatants by precipitation with 0.2 ml of 8% perchloric acid. 3. Histamine Assay: Histamine release is measured by the automated fluorometric method of Siraganian, supra. The concentration which causes a 50% inhibition (IC50) of histamine release is computed as in Part A.

Assay [2] deals with human leukocytes (basophils). The assay can be described thus: Inhibition of histamine release from human leukocytes (basophils), Procedure A. Conditions: Leukocyte, 1 h, rabbit anti-human IgE, 37° C., 60 minutes, (d) No response detected at highest dose indicated, read-out: In Vitro Inhibition of Histamine Release IC50, Procedure A. As for the experimental part: A. Procedure for Determining Inhibition of Histamine Release from Human Leukocytes (Basophils) 1. Separation of Leukocytes: A modification of the method of L. Lichtenstein and A. Osler, J. Exp. Med. 120, 507 (1964) is used. Heparinized human blood (80-100 ml) is mixed with 20 ml of saline (0.2%) containing 0.6 gm of dextrose and 1.2 gm dextran in propylene centrifuge tubes. The mixture is kept at ambient temperature for 60-90 minutes to allow the separation of erythrocytes from the platelet-leukocyte-rich supernate. The supernate is removed and centrifuged for 8 minutes at 110×g in cold. The leukocyte pellet is washed twice with Tris buffer and finally suspended in 150-180 ml Tris-ACM buffer at 1-2×10^6 cells/ml. 2. Reaction Mixture: The reaction is carried out in 12×75 mm plastic tubes at a total volume of […]. The reaction medium includes 0.05 ml rabbit anti-human IgE (the antigen), 0.2 ml of the test compound in water at concentrations ranging from 10-100 μM, and 0.1 ml of the leukocyte suspension. The reaction mixture is incubated in a 37° C. shaking water bath for 60 minutes. Upon completion of the reaction, the tubes are centrifuged and the supernatants collected. The protein is removed from the supernatants by precipitation with 0.2 ml of 8% perchloric acid. 3. Histamine Assay: Histamine release is measured by the automated fluorometric method of W. Siraganian and W. Hook in Chapter 102 of the Manual of Clinical Immunology, 2nd Edition, edited by R. Rose and H. Friedman, published by the American Society for Microbiology, Washington, D.C. 1980. Percent inhibition is calculated as follows: [formula] The concentration which causes a 50 percent inhibition (IC50) of histamine release is interpolated from a plot of percent inhibition versus logarithm of drug concentration.

Assay [3] relates to guinea pig basophils. The assay can be described thus: Inhibition of histamine release from guinea pig basophils, Procedure C. The settings on record: Cavia porcellus, 1 h, ovalbumin-sensitized, 37° C., 60 minutes, read-out: In Vitro Inhibition of Histamine Release IC50, Procedure C. As for the experimental part:
C. Procedure for Determining Inhibition of Histamine Release from Guinea Pig Basophils 1. In Vivo Sensitization: Male Hartley guinea pigs (200-300 gms) are immunized on day 0 with two 0.05 ml intradermal injections of 200 μg ovalbumin. Sensitized basophils are available between days 13-25 post-sensitization. This mode of sensitization favors IgE response. 2. Separation of Leukocytes: The method of Lett-Brown et al., Int. Arch. Allergy, Appl. Immun. 64, 241 (1981) is used. Animals are anesthetized with ether and are bled via cardiac puncture with plastic syringes containing sufficient EDTA to provide a final concentration of 10 mM. One part of 3% gelatin in saline at 37° C. is mixed with two parts of blood in a 16×150 mm tube. The cells are allowed to sediment at a 30° angle for 45 minutes in a 37° C. water bath. The leukocyte-rich plasma is collected and centrifuged at 150×g for 30 minutes at room temperature. The pelleted cells are washed in Hepes-buffered saline (HG) containing 4 mM EDTA and resuspended in Hepes-buffered saline containing Mg^++ and Ca^++ (HGCM) at 4-5×10^6 cells/ml. 3. Reaction Mixture: The reaction is carried out in 12×75 mm plastic tubes and a total volume of 1.2 ml which includes 0.5 ml of antigen, 0.2 ml of drug solution at concentrations ranging from 10-1000 μM and 0.5 ml of prewashed cell suspension. The reaction mixture is incubated in a 37° C. shaking water bath for 60 minutes. Upon completion of the reaction, the tubes are centrifuged and the supernatants collected. The protein is removed from the supernatants by precipitation with 0.2 ml of 8% perchloric acid. 4. Histamine Assay: Histamine release is measured by the automated fluorometric method of Siraganian, supra. The concentration which causes a 50 percent inhibition of Histamine release is computed as in Part A.

With `Clc1ccc(CN2CCN(CCCN3CCN(Cc4ccc(Cl)cc4)CC3)CC2)cc1` [Example 1, 1,3-Bis[4-(4-chlorobenzyl)-1-piperazinyl]propane tetrahydrochloride], the IC50 in assay [1] amounted to 2 µM; in assay [2] it was 11 µM; in assay [3], 35 µM.
For `OC(CN1CCN(Cc2ccc(Cl)cc2)CC1)CN1CCN(Cc2ccc(Cl)cc2)CC1` [Example 2, 1,3-Bis[4-(4-chlorobenzyl)-1-piperazinyl]-2-hydroxypropane], in that order: 80 µM, 12 µM and 23 µM.
With `Clc1ccc(CN2CCN(CCCCN3CCN(Cc4ccc(Cl)cc4)CC3)CC2)cc1` [Example 3, 1,4-Bis[4-(4-chlorobenzyl)-1-piperazinyl]butane hemihydrate], in assay [2], the IC50 came to 24 µM.
On the same count and under the same terms, in the case of `c1ccc(CN2CCN(CCCN3CCN(Cc4ccccc4)CC3)CC2)cc1` [Example 4, 1,3-Bis(4-benzyl-1-piperazinyl)propane tetrahydrochloride] it was 53 µM.
On to `Fc1ccc(CN2CCN(CCCN3CCN(Cc4ccc(F)cc4)CC3)CC2)cc1` [Example 5, 1,3-Bis[4-(4-fluorobenzyl)-1-piperazinyl]propane tetrahydrochloride], for which the values for the IC50 in assay [2] and in assay [3] were 45 µM and 760 µM, respectively.
Regarding `O=C(CCN1CCN(Cc2ccc(Cl)cc2)CC1)N1CCN(Cc2ccc(Cl)cc2)CC1` [Example 6, 1,3-Bis[4-(4-chloro-benzyl)-1-piperazinyl]-1-oxo-propane trihydrochloride], the IC50 in assay [2] amounted to 12 µM.
Consider `CC(CCN1CCN(Cc2ccc(Cl)cc2)CC1)N1CCN(Cc2ccc(Cl)cc2)CC1` (stereo not shown) [Example 7, 1,3-Bis[4-(4-chlorobenzyl)-1-piperazinyl]-1-methylpropane tetrahydrochloride hemihydrate], for which the IC50 in assay [2] is 4 µM.
Consider `Clc1ccc(C(c2ccccc2)N2CCN(CCCN3CCN(C(c4ccccc4)c4ccc(Cl)cc4)CC3)CC2)cc1` (stereo not shown) [Example 8, 1,3-Bis[4-(4-chlorobenzhydryl)-1-piperazinyl]-propane dihydrochloride dihydrate], for which the values for the IC50 in assay [1] and in assay [2] were over 100 µM and over 1000 µM, respectively.
For the compound `O=C(CN1CCN(CCCN2CCN(Cc3ccc(Cl)cc3)CC2)CC1)c1ccccc1` [Example 10, 1-[4-(4-Chlorobenzyl)-1-piperazinyl]-3-(4-phenacyl-1-piperazinyl)propane tetrahydrochloride monohydrate], the half-maximal inhibitory concentration (IC50) in assay [2] is 3 µM.
On the same count and under the same terms, under `OC(CN1CCN(CCCN2CCN(Cc3ccc(Cl)cc3)CC2)CC1)c1ccccc1` (stereo not shown) [Example 11, 1-[4-(4-Chlorobenzyl)-1-piperazinyl]-3-[4-(2-hydroxy-2-phenylethyl)-1-piperazinyl]propane tetrahydrochloride] stands 20 µM; under `O=C(CN1CCN(CCCN2CCN(CC(=O)c3ccccc3)CC2)CC1)c1ccccc1` [Example 12, 1,3-Bis(4-phenacyl-1-piperazinyl)propane tetrahydrochloride monohydrate], 800 µM.
Still for that read-out and setting: under `OC(CN1CCN(CCCN2CCN(CC(O)c3ccccc3)CC2)CC1)c1ccccc1` (stereo not shown) [Example 13, 1,3-Bis[4-(2-phenyl-2-hydroxyethyl)-1-piperazinyl]propane tetrahydrochloride] stands about 1000 µM; under `c1ccc(CCN2CCN(CCCN3CCN(CCc4ccccc4)CC3)CC2)cc1` [Example 14, 1,3-Bis(4-phenethyl-1-piperazinyl)propane dihydrochloride dihydrate], 28 µM; under `CC(c1ccccc1)N1CCN(CCCN2CCN(C(C)c3ccccc3)CC2)CC1` (stereo not shown) [Example 17, 1,3-Bis[4-(1-phenylethyl)-1-piperazinyl]-propane tetrahydrochloride], 80 µM.
Turning to `Clc1ccc(CN2CCN(CCCN3CCN(Cc4ccc(Cl)c(Cl)c4)CC3)CC2)cc1Cl` [Example 20, 1,3-Bis[4-(3,4-dichlorobenzyl)-1-piperazinyl]-propane tetrahydrochloride], the IC50 in assay [2] came to 3 µM.
With `Clc1ccccc1CN1CCN(CCCN2CCN(Cc3ccccc3Cl)CC2)CC1` [Example 21, 1,3-Bis[4-(2-chlorobenzyl)-1-piperazinyl]propane tetrahydrochloride], the IC50 in assay [2] is 14 µM.
Same read-out and setting: under `Cc1ccc(CN2CCN(CCCN3CCN(Cc4ccc(C)cc4)CC3)CC2)cc1` [Example 22, 1,3-Bis[4-(4-methylbenzyl)-1-piperazinyl]-propane tetrahydrochloride] stands 20 µM.
Regarding `Clc1cccc(CN2CCN(CCCN3CCN(Cc4cccc(Cl)c4)CC3)CC2)c1` [Example 23, 1,3-Bis[4-(3-chlorobenzyl)-1-piperazinyl]propane dihydrochloride monohydrate], the IC50 in assay [2] turned out to be 14 µM.
On the same count and under the same terms, under `FC(F)(F)c1cc(CN2CCN(CCCN3CCN(Cc4ccc(Cl)c(C(F)(F)F)c4)CC3)CC2)ccc1Cl` [Example 25, 1,3-Bis[4-(4-chloro-3-trifluoromethylbenzyl)-1-piperazinyl]propane tetrahydrochloride] stands 6 µM.
On to `Oc1ccc(CN2CCN(CCCN3CCN(Cc4ccc(O)cc4)CC3)CC2)cc1` [Example 26, 1,3-Bis[4-(4-hydroxybenzyl)-1-piperazinyl]propane], for which the IC50 in assay [2] was over 1000 µM.
Take `Brc1ccc(CN2CCN(CCCN3CCN(Cc4ccc(Br)cc4)CC3)CC2)cc1` [Example 27, 1,3-Bis[4-(4-bromobenzyl)-1-piperazinyl]propane tetrahydrochloride]: the IC50 in assay [2] is 3 µM.
In the case of `Clc1ccc(CCCCN2CCN(CCCN3CCN(CCCCc4ccc(Cl)cc4)CC3)CC2)cc1` [Example 29, 1,3-Bis[4-(4-{4-chlorophenyl}butyl)-1-piperazinyl]propane tetrahydrochloride], the IC50 in assay [2] turned out to be 2 µM.
Still for that read-out and setting: under `CC(=O)Oc1ccc(CN2CCN(CCCN3CCN(Cc4ccc(OC(C)=O)cc4)CC3)CC2)cc1` [Example 30, 1,3-Bis[4-(4-acetoxybenzyl)-1-piperazinyl]propane] stands over 1000 µM; under `CCCCOc1ccc(CN2CCN(CCCN3CCN(Cc4ccc(OCCCC)cc4)CC3)CC2)cc1` [Example 31, 1,3-Bis[4-(4-butoxybenzyl)-1-piperazinyl]propane tetrahydrochloride], 4 µM.
`CC1C(C)N(Cc2ccc(Cl)cc2)C(C)C(C)N1CCCN1C(C)C(C)N(Cc2ccc(Cl)cc2)C(C)C1C` (stereo not shown) [Example 32, 1,3-bis[4-(4-chlorobenzyl)-2,3,5,6-tetramethyl-1-piperazinyl]propane tetrahydrochloride]: the IC50 in assay [2] was found to be 1000 µM.
